Test results from BindingDB's records for doi:10.1016/j.bioorg.2015.02.005 (North-West University, 2015).
Where “and” joins values, the source holds several entries; their conditions need not be identical. Identical values can stand only once.

Columns and labels:
[1] = molecular target: T1, Adenosine receptor A1 (Rattus norvegicus, UniProt P25099); assay: Radioligand Binding Assays
T1 sequence (P25099 whole entry): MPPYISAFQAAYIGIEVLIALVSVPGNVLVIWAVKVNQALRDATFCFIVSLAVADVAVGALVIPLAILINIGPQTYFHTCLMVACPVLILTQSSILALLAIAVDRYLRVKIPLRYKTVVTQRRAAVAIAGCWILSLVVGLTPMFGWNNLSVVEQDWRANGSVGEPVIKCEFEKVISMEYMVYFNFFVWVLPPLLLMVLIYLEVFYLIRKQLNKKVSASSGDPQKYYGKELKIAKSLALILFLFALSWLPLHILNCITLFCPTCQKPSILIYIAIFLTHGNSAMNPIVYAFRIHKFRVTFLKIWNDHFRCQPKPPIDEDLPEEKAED
Description: (§1) For the A2a receptor binding study, the incubation contained 10 mg of the original tissue weight of the striatal membranes, 4 nM [3H]NECA, 50 nM CPA, 10 mM MgCl2, 0.2 units/mL adenosine deaminase, the test compound and 1% DMSO. For the A1 receptor binding study, the incubations contained 5 mg of the original tissue weight of the whole brain membranes, 0.1 nM [3H]DPCPX, 0.2 units/mL adenosine deaminase, the test compound and 1% DMSO. The incubations were vortexed and incubated for 60 min at 25 °C in a shaking waterbath. Half an hour after incubation was started, the incubations were vortexed again. The incubations were terminated via filtration. The tubes were washed twice with 4 mL ice-cold Tris buffer and the filters were washed once more with 4mL ice-cold Tris buffer. The damp filters were place in scintillation vials and 4 mL of scintillation fluid was added. The vials were shaken and incubated for two hours before being counted.

[2] = molecular target: Adenosine receptor A2a (Rattus norvegicus, UniProt P30543); assay: Radioligand Binding Assays
Description: as §1

[3] = molecular target: T2, Amine oxidase [flavin-containing] B (Homo sapiens, UniProt P27338); assay: MAO Inhibition Assays; settings: pH 7.4
T2 sequence (P27338 whole entry): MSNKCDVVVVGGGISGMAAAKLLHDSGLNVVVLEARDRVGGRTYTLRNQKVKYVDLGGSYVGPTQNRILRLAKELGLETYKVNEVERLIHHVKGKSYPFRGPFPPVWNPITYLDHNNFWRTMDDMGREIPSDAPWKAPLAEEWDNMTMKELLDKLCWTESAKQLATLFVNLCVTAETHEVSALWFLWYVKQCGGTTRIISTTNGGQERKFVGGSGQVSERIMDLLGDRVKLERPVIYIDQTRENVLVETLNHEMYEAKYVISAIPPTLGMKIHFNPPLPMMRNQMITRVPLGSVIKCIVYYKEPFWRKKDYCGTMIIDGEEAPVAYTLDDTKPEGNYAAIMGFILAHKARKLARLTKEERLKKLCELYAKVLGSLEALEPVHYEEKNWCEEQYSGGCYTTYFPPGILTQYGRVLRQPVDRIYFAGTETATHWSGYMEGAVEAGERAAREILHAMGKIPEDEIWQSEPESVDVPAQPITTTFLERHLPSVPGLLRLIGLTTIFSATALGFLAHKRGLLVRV
Description: The enzymatic reactions were carried out at pH 7.4 (K2HPO4/KH2PO4 100 mM, made isotonic with KCl) to a final volume of 500 µL. The reactions contained the different inhibitor concentrations spanning at least 3 orders of magnitude and the MAO-A/B mixed substrate kynuramine (45 µM for MAO-A and 30 µM for MAO-B). DMSO, as co-solvent (4%) was added to each reaction. The enzyme reactions were initiated with the addition of MAO-A or MAO-B (0.0075 mg protein/mL) and incubated for 20 min at 37 °C in a waterbath. After termination with the additionof 400 µL NaOH (2 N) and 1000 µL water, the concentrations of the MAO generated 4-hydroxyquinoline were measured by fluorescence spectrophotometry (excitation = […]; emission = […]).

Adenosine receptor A2a, sequence (P30543 whole entry): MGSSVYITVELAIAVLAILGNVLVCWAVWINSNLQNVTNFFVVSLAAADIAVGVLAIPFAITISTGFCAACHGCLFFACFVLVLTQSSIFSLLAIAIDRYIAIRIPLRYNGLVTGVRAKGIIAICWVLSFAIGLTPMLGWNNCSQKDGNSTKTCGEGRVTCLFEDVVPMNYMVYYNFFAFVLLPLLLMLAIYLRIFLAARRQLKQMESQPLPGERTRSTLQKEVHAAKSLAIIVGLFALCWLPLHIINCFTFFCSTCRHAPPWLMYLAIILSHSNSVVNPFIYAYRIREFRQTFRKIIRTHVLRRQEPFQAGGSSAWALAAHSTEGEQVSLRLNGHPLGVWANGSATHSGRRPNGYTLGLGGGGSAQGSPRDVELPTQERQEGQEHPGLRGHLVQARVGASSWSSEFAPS

Ki [1] | Ki [2] [µM] | IC50 [3] [nM] | Structure (SMILES)
4670 nM | – | – | O=C1NC(=O)c2cc(OCc3ccccc3)ccc21
1880 nM and 649 nM | 17 | 3900 | O=C1NC(=O)c2cc(SCCc3ccccc3)ccc21
369 nM and 1730 nM | – | – | COc1ccc(CSc2ccc3c(c2)C(=O)NC3=O)cc1
36700 nM and 6300 nM | 12.7 | – | O=C1NC(=O)c2cc(SCc3ccc(F)cc3)ccc21
676 nM | – | – | O=C1NC(=O)c2cc(SCc3ccc(Br)cc3)ccc21
– | – | 460 | O=C1NC(=O)c2cc(SCc3ccc(Cl)cc3)ccc21
595 nM and 548 nM | 0.98 | – | O=C1NC(=O)c2cc(SCc3ccccc3)ccc21
9790 nM | – | – | O=C1Nc2ccc(OCc3ccccc3)cc2C1=O [5-Benzyloxyisatin]
